Patent US10662189B2, “PDE4 inhibitor” (SHIJIAZHUANG SAGACITY NEW DRUG DEVELOPMENT CO., LTD., priority 2016, dated 2020)

Target: Recombinant human PDE4B (Homo sapiens (Human), UniProt Q07343)
Test: Inhibitory activity against PDE 4B in vitro (fluorescence polarization, Transcreener AMP2/GMP2)
Type: biochemical
Conditions: 1 μM cAMP
Experimental: Inhibitory activity of the compounds against PDE 4B
The enzyme activity was indicated by measuring the AMP/GMP expression and tracing AMP/GMP antibody binding based on fluorescence polarization in the biological assay.
10 mM Tris-HCl (pH 7.5), 5 mM MgCl2, 0.01% Brij 35, 1 mM DTT and 1% DMSO.
Recombinant human PDE4B (Gen accession number: NM_002600; amino acid 305 end) was expressed by baculovirus in Sf9 insect cells using an N-terminal GST tag. MW=78 kDa.
Transcreener® AMP2/GMP2 antibody and AMP2/GMP2 AlexaFluor633 tracer
i) Recombinant human PDE4B and the enzyme substrate (1 μM cAMP) were dissolved in the newly-prepared buffer solution, respectively.
ii) The PDE4B buffer solution defined as above was transferred into the reaction wells.
iii) The compound which was dissolved in 100% DMSO was added to the reaction wells of the PDE4B buffer solution by ultrasonic oscillator (echo 550; nanoliter range) and incubated at room temperature for 10 minutes.
iv) The enzymatic buffer solution was then added to the reaction wells defined as above to initiate the reaction.
v) The reaction was incubated at room temperature for 1 hour.
vi) The reaction was terminated by adding detecting mixture (Transcreener® AMP2/GMP2 antibody and AMP2/GMP2 AlexaFluor633 tracer) and incubated for 90 minutes with slowly mixing. The measurement range of fluorescence polarization is Ex/Em=620/688.
The fluorescence polarization signal was converted into nM according to the AMP/GMP standard curve and the percent enzyme activity relative to DMSO calculated by Excel. GraphPad Prism was used to plot the curves (Drawing Medicine Icon).

Recombinant human PDE4B, sequence (Q07343 305-736 limits assumed): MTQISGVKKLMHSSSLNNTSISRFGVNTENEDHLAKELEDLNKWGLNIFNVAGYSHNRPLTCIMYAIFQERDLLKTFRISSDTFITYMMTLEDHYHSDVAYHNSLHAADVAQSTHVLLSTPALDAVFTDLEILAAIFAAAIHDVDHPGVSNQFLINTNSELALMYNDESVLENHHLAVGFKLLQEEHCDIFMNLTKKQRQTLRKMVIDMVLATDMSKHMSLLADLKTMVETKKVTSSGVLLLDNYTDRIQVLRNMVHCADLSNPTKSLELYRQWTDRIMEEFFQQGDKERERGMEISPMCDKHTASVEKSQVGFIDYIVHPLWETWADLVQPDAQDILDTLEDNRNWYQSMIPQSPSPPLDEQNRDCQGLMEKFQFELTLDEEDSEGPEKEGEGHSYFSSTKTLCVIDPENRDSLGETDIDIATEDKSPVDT

Row | IC50 [nM] | SMILES
1 | < 0.5 | CCOc1cc([C@@H](CS(C)(=O)=O)n2c(=O)[nH]c3cc(-c4ccccc4Cl)cnc32)ccc1OC [WX016]
2 | 0.391 | CCOc1cc([C@@H](CS(C)(=O)=O)n2c(=O)[nH]c3cc(-c4ccccc4C(F)(F)F)cnc32)ccc1OC [WX018]
3 | 3.4 | CCOc1cc([C@@H](CS(C)(=O)=O)n2c(=O)[nH]c3cc(-c4cccc(F)c4)cnc32)ccc1OC [WX011]
4 | 6.27 | CCOc1cc([C@@H](CS(C)(=O)=O)n2c(=O)[nH]c3cc(-c4cscn4)cnc32)ccc1OC [WX036]
5 | 3.48 | CCOc1cc([C@@H](CS(C)(=O)=O)n2c(=O)n(C(C)C)c3cc(-c4ccccc4F)cnc32)ccc1OC [WX060]
6 | 26.1 | CCOc1cc([C@@H](CS(C)(=O)=O)n2c(=O)[nH]c3cc(-n4ccccc4=O)cnc32)ccc1OC [WX021]
7 | 9.1 | CCOc1cc([C@@H](CS(C)(=O)=O)n2c(=O)n(CCOC)c3cc(Br)cnc32)ccc1OC [WX051]
8 | 6.5 | CCOc1cc([C@@H](CS(C)(=O)=O)n2c(=O)n(C3CC3)c3cc(Br)cnc32)ccc1OC [WX045]
9 | 14.5 | CCOc1cc([C@@H](CS(C)(=O)=O)n2c(=O)[nH]c3cc(-c4nccnc4C)cnc32)ccc1OC [WX038]
10 | 1.04 | CCOc1cc([C@@H](CS(C)(=O)=O)n2c(=O)[nH]c3cc(-c4ccccc4C(C)C)cnc32)ccc1OC [WX015]
11 | 9.53 | CCOc1cc([C@@H](CS(C)(=O)=O)n2c(=O)[nH]c3cc(-c4cccnc4)cnc32)ccc1OC [WX025]
12 | 8.2 | CCOc1cc([C@@H](CS(C)(=O)=O)n2c(=O)n(CCS(C)(=O)=O)c3cc(Br)cnc32)ccc1OC [WX052]
13 | 10.6 | CCOc1cc([C@@H](CS(C)(=O)=O)n2c(=O)[nH]c3cc(F)cnc32)ccc1OC [WX003]
14 | 3.9 | CCOc1cc([C@@H](CS(C)(=O)=O)n2c(=O)[nH]c3cc(-c4ccc(F)cc4)cnc32)ccc1OC [WX012]
15 | 0.515 | CCOc1cc([C@@H](CS(C)(=O)=O)n2c(=O)[nH]c3cc(-c4ccccc4CC)cnc32)ccc1OC [WX030]
16 | 0.641 | CCOc1cc([C@@H](CS(C)(=O)=O)n2c(=O)[nH]c3cc(-c4ccccc4OC)cnc32)ccc1OC [WX017]
17 | 1.03 | CCOc1cc(C(CS(C)(=O)=O)n2c(=O)[nH]c3cc(-c4ccccc4)cnc32)ccc1OC(F)F (centres unmarked) [WX074]
18 | 0.861 | CCOc1cc([C@@H](CS(C)(=O)=O)n2c(=O)[nH]c3cc(-c4ccccc4OCC)cnc32)ccc1OC [WX031]
19 | 3.4 | CCOC(=O)Cn1c(=O)n([C@H](CS(C)(=O)=O)c2ccc(OC)c(OCC)c2)c2ncc(Br)cc21 [WX056]
20 | 5.42 | CCOc1cc([C@@H](CS(C)(=O)=O)n2c(=O)[nH]c3cc(Oc4ncccn4)cnc32)ccc1OC [WX042]
21 | 10.4 | CCOc1cc([C@@H](CS(C)(=O)=O)n2c(=O)[nH]c3cc(C4=CCN(C(=O)OC(C)(C)C)CC4)cnc32)ccc1OC [WX040]
22 | 7.09 | CCOc1cc([C@@H](CS(C)(=O)=O)n2c(=O)[nH]c3cc(Br)cnc32)ccc1OC [WX004]
23 | 2.53 | CCOc1cc([C@@H](CS(C)(=O)=O)n2c(=O)[nH]c3cc(Oc4ccccc4C(F)(F)F)cnc32)ccc1OC [WX043]

Row | IC50 [nM] | SMILES
24 | 0.994 | CCOc1cc([C@@H](CS(C)(=O)=O)n2c(=O)[nH]c3cc(-c4cccc(F)c4F)cnc32)ccc1OC [WX013]
25 | 7.79 | CCOc1cc([C@@H](CS(C)(=O)=O)n2c(=O)n(C3CC3)c3cc(-c4ccccc4F)cnc32)ccc1OC [WX046]
26 | 26.5 | CCOc1cc([C@@H](CS(C)(=O)=O)n2c(=O)[nH]c3cc(C#N)cnc32)ccc1OC [WX022]
27 | 1.01 | CCOc1cc(C(CS(C)(=O)=O)n2c(=O)[nH]c3c(C)c(-c4ccccc4)cnc32)ccc1OC(F)F (centres unmarked) [WX077]
28 | 41.6 | CCOc1cc([C@@H](CS(C)(=O)=O)n2c(=O)n(CC(F)F)c3cc(Cl)cnc32)ccc1OC [WX047]
29 | 6.99 | CCOc1cc([C@@H](CS(C)(=O)=O)n2c(=O)n(Cc3cncc(C)n3)c3cc(Br)cnc32)ccc1OC [WX055]
30 | 19.8 | CCOc1cc([C@@H](CS(C)(=O)=O)n2c(=O)n(CC(F)(F)F)c3cc(Cl)cnc32)ccc1OC [WX048]
31 | 0.74 | CCOc1cc(C(CS(C)(=O)=O)n2c(=O)oc3cc(-c4ccccc4F)cnc32)ccc1OC (centres unmarked) [WX071]
32 | < 0.5 | CCOc1cc(C(CS(C)(=O)=O)n2c(=O)[nH]c3c(-c4ccccc4)ccnc32)ccc1OC(F)F (centres unmarked) [WX078]
33 | 15.5 | CCOc1cc([C@@H](CS(C)(=O)=O)n2c(=O)[nH]c3cc(-c4ccncc4)cnc32)ccc1OC [WX035]
34 | 14.8 | CCOc1cc([C@@H](CS(C)(=O)=O)n2c(=O)[nH]c3cc(-c4cncnc4C)cnc32)ccc1OC [WX029]
35 | 2.7 | CCOc1cc([C@@H](CS(C)(=O)=O)n2c(=O)n(Cc3ccccc3F)c3cc(Cc4ccccc4F)cnc32)ccc1OC [WX024]
36 | 9.48 | CCOc1cc([C@@H](CS(C)(=O)=O)n2c(=O)[nH]c3cc(Cl)cnc32)ccc1OC [WX001]
37 | 19.1 | CCOc1cc([C@@H](CS(C)(=O)=O)n2c(=O)[nH]c3cc(-c4cncnc4)cnc32)ccc1OC [WX027]
38 | 90.7 | CCOc1cc([C@@H](CS(C)(=O)=O)n2c(=O)n(CC(F)F)c3cc(F)cnc32)ccc1OC [WX049]
39 | 3.5 | CCOc1cc([C@@H](CS(C)(=O)=O)n2c(=O)n(C3CCC3)c3cc(-c4ccccc4F)cnc32)ccc1OC [WX062]
40 | 2.81 | CCOc1cc([C@@H](CS(C)(=O)=O)n2c(=O)[nH]c3cc(C=C(C)C)cnc32)ccc1OC [WX007]
41 | 0.671 | CCOc1cc([C@@H](CS(C)(=O)=O)n2c(=O)[nH]c3cc(-c4c(F)cccc4F)cnc32)ccc1OC [WX033]
42 | 5.03 | CCOc1cc([C@@H](CS(C)(=O)=O)n2c(=O)[nH]c3cc(C4CC4)cnc32)ccc1OC [WX005]
43 | 5.66 | CCOc1cc([C@@H](CS(C)(=O)=O)n2c(=O)[nH]c3cc(C(F)(F)F)cnc32)ccc1OC [WX002]
44 | 21.7 | CCOc1cc([C@@H](CS(C)(=O)=O)n2c(=O)[nH]c3cc(-c4nnccc4C)cnc32)ccc1OC [WX039]
45 | < 0.5 | CCOc1cc([C@@H](CS(C)(=O)=O)n2c(=O)[nH]c3cc(-c4ccccc4C)cnc32)ccc1OC [WX014]
46 | 4.51 | CCOc1cc([C@@H](CS(C)(=O)=O)n2c(=O)[nH]c3cc(-c4ncccn4)cnc32)ccc1OC [WX026]

Row | IC50 [nM] | SMILES
47 | 0.86 | CCOc1cc([C@@H](CS(C)(=O)=O)n2c(=O)[nH]c3cc(-c4ccccc4F)cnc32)ccc1OC [WX009]
48 | 1.49 | CCOc1cc([C@@H](CS(C)(=O)=O)n2c(=O)n(Cc3ccccc3F)c3cc(Br)cnc32)ccc1OC [WX053]
49 | 2.6 | CCOc1cc([C@@H](CS(C)(=O)=O)n2c(=O)[nH]c3cc(-c4ccccc4)cnc32)ccc1OC [WX010]
50 | 3.38 | CCOc1cc([C@@H](CS(C)(=O)=O)n2c(=O)[nH]c3cc(-c4cn[nH]c4)cnc32)ccc1OC [WX019]
51 | 1.8 | CCOc1cc([C@@H](CS(C)(=O)=O)n2c(=O)[nH]c3cc(Cc4ccccc4F)cnc32)ccc1OC [WX006]
52 | < 0.5 | CCOc1cc(C(CS(C)(=O)=O)n2c(=O)[nH]c3cc(-c4ccccc4F)cnc32)ccc1OC(F)F (centres unmarked) [WX073]
53 | 0.234 | CCOc1cc([C@@H](CS(C)(=O)=O)n2c(=O)[nH]c3cc(-c4ccccc4C#N)cnc32)ccc1OC [WX032]
54 | 0.989 | CCOc1cc([C@@H](CS(C)(=O)=O)n2c(=O)n(CC#N)c3cc(-c4ccccc4F)cnc32)ccc1OC [WX061]
55 | 73.8 | CCOc1cc(C(CS(C)(=O)=O)n2c(=O)oc3cc(Br)cnc32)ccc1OC (centres unmarked) [WX070]
56 | 11 | CCOc1cc([C@@H](CS(C)(=O)=O)n2c(=O)n(C)c3cc(Br)cnc32)ccc1OC [WX050]
57 | 2.24 | CCOc1cc([C@@H](CS(C)(=O)=O)n2c(=O)[nH]c3c(Cc4ccccc4F)ccnc32)ccc1OC [WX068]
58 | 1.99 | CCOc1cc([C@@H](CS(C)(=O)=O)n2c(=O)n(CC)c3cc(-c4ccccc4F)cnc32)ccc1OC [WX058]
59 | 2.02 | CCOc1cc([C@@H](CS(C)(=O)=O)n2c(=O)n(CCO)c3cc(-c4ccccc4F)cnc32)ccc1OC [WX059]
60 | 4.89 | CCOc1cc([C@@H](CS(C)(=O)=O)n2c(=O)[nH]c3cc(CC(C)C)cnc32)ccc1OC [WX008]
61 | 10.2 | CCOc1cc([C@@H](CS(C)(=O)=O)n2c(=O)[nH]c3cc(-c4ncccc4F)cnc32)ccc1OC [WX037]
62 | 26.6 | CCOc1cc([C@@H](CS(C)(=O)=O)n2c(=O)n(-c3ccccc3)c3cc(Br)cnc32)ccc1OC [WX044]
63 | 65.8 | CCOc1cc([C@@H](CS(C)(=O)=O)n2c(=O)[nH]c3cc(C)cnc32)ccc1OC [WX020]
64 | 9.7 | CCOc1cc([C@@H](CS(C)(=O)=O)n2c(=O)[nH]c3cc(-c4nccc(C)n4)cnc32)ccc1OC [WX028]
65 | 5.18 | CCOc1cc([C@@H](CS(C)(=O)=O)n2c(=O)[nH]c3cc(-c4c(C)ncnc4C)cnc32)ccc1OC [WX034]
66 | 5.39 | CCOc1cc(C(CS(C)(=O)=O)n2c(=O)[nH]c3c(C)c(C)cnc32)ccc1OC(F)F (centres unmarked) [WX075]
67 | < 0.5 | CCOc1cc(C(CS(C)(=O)=O)n2c(=O)[nH]c3c(C)c(-c4ccccc4F)cnc32)ccc1OC(F)F (centres unmarked) [WX076]
68 | 2.23 | CCOc1cc([C@@H](CS(C)(=O)=O)n2c(=O)[nH]c3c(C)c(-c4ccccc4)cnc32)ccc1OC [WX064]
